Assay results reported in ChEMBL document CHEMBL2021888, “Discovery of Novel α4β2 Neuronal Nicotinic Receptor Modulators through Structure-Based Virtual Screening” (ACS Med Chem Lett, 2011).

Tests used:
[1] = molecular target: T1, Neuronal acetylcholine receptor; alpha4/beta2 (Homo sapiens, UniProt P17787+P43681); assay: Antagonist activity at human alpha4beta2 nAChR expressed in HEK tsA201 cells assessed as inhibition of epibatidine-induced intracellular calcium accumulation at 50 uM after 1 hr by fluorescence assay relative to control; format: functional, cell-based; conditions: HEK293, values are per cent of control
T1 sequence (P17787 whole entry): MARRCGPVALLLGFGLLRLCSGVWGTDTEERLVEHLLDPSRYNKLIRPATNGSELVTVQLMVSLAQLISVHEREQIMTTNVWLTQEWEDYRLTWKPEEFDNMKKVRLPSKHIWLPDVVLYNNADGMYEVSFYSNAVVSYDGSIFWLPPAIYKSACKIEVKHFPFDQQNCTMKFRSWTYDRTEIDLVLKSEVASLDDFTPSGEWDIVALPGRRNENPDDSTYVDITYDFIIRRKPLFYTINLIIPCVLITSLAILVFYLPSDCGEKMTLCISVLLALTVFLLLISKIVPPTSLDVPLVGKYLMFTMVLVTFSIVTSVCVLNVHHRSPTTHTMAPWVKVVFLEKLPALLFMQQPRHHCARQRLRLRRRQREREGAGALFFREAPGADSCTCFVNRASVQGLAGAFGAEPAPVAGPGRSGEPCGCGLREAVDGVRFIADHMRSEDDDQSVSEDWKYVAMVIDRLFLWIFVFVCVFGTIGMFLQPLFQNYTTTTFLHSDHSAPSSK
T1 sequence (P43681 whole entry): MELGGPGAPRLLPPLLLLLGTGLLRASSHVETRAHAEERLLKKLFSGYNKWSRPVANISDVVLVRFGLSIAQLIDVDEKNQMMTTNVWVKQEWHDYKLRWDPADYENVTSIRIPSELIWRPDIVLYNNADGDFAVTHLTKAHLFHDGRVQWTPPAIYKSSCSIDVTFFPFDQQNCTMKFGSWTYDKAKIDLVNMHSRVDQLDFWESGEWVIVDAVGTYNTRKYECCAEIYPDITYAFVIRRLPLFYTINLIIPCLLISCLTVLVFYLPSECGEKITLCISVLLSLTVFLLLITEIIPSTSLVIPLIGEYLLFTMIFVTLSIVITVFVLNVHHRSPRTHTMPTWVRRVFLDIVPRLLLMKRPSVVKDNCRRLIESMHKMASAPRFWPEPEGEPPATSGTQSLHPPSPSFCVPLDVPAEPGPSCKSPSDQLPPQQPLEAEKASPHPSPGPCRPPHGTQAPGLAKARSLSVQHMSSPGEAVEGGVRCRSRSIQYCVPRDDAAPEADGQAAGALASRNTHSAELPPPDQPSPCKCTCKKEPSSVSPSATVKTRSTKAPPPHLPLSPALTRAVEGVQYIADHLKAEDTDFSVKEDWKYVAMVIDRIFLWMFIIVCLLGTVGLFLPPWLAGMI

[2] = molecular target: Neuronal acetylcholine receptor; alpha3/beta4 (Homo sapiens, UniProt P30926+P32297); assay: Antagonist activity at human alpha3beta4 nAChR expressed in HEK tsA201 cells assessed as inhibition of epibatidine-induced intracellular calcium accumulation after 1 hr by fluorescence assay; format: functional, cell-based, HEK293
Neuronal acetylcholine receptor; alpha3/beta4, sequence (P30926 whole entry): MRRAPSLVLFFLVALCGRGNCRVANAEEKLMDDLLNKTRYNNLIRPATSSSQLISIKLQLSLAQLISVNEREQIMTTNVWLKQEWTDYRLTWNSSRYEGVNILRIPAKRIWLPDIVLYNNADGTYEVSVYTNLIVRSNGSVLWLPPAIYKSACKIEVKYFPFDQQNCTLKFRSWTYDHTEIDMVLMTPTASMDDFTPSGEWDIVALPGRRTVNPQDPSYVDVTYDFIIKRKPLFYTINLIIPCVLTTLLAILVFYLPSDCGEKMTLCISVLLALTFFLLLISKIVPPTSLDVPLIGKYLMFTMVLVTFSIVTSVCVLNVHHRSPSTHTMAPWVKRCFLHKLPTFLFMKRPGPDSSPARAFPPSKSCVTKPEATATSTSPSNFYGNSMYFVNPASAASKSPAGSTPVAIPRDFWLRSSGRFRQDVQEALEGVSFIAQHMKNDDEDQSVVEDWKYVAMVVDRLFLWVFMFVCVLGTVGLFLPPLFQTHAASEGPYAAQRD
Neuronal acetylcholine receptor; alpha3/beta4, sequence (P32297 whole entry): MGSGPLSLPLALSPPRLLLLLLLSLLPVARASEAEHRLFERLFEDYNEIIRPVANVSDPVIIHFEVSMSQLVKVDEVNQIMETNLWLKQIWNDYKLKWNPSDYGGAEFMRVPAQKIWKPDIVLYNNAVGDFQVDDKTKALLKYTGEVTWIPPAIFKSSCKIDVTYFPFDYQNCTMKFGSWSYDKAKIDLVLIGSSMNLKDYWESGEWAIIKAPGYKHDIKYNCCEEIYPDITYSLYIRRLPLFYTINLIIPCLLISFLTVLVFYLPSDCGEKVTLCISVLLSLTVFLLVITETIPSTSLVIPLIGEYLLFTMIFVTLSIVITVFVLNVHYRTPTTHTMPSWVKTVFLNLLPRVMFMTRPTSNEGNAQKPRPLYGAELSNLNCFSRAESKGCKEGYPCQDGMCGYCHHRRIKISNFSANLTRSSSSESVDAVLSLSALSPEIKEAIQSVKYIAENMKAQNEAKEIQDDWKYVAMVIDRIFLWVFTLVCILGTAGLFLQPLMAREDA

[3] = molecular target: T1, Neuronal acetylcholine receptor; alpha4/beta2; assay: Antagonist activity at human alpha4beta2 nAChR expressed in HEK tsA201 cells assessed as inhibition of epibatidine-induced intracellular calcium accumulation after 1 hr by fluorescence assay; format: functional, cell-based, HEK293

| SMILES | residual activity [1] | IC50 [2] | IC50 [3] |
| --- | --- | --- | --- |
| O=C(O)c1cc(NCc2cccs2)ccc1N1CCOCC1 | 49.5% | > 100 µM | 20.6 µM |
| O=C(O)CCC(=O)Nc1cc(F)ccc1F | 83.3% | – | – |
| CC(=O)N1CCN(c2ccc(NC(=O)c3cccnc3)cc2Cl)CC1 | 103% | – | – |
| CC(=O)Nc1ccc2c(c1)nc(CN1CCCCC1)n2C | 86.2% | – | – |
| Cc1cccc(NC(=O)c2cc(N)ccc2N2CCCCC2)n1 | 47.7% | 46.3 µM | 14.4 µM |
| O=C(CN1CCN(S(=O)(=O)c2ccc(F)cc2)CC1)Nc1ccccc1F | 46.9% | 19.6 µM | 9.8 µM |
| Cc1cccc(C(C)C)c1NC(=O)c1ccccc1NS(C)(=O)=O | 74% | – | – |
| Cn1c(=O)c2[nH]c(CN3CCc4ccccc4C3)nc2n(C)c1=O | 83.2% | – | – |

Now from value to molecule:

| residual activity [1] | IC50 [2] | IC50 [3] | SMILES |
| --- | --- | --- | --- |
| 59.8% | – | – | O=C(CN1CCN(c2ccccc2)CC1)NCc1ccco1 |
| 76.2% | – | – | O=C(CSc1nnc(-c2ccccn2)o1)Nc1cccc2ccccc12 |
| 51.1% | > 100 µM | 6.1 µM | C=CCN1C(=O)[C@](O)(CC(=O)c2ccco2)c2cc(Cl)ccc21 |
| 71% | – | – | COC(=O)c1ccc(N2CCN(C)CC2)c(NC(=O)Cc2ccccc2)c1 |
| 72.5% | – | – | O=C(Nc1ccc(F)cc1)C1CC(=O)n2c(nc3ccccc32)N1 (configuration not stated) |
| 59.9% | – | – | C=C(C)CN1C(=O)C(O)(CC(=O)c2ccccn2)c2ccccc21 (configuration not stated) |
